Consider three compounds from US7297797B2, “Pyrrolines” (Bayer CropScience AG, priority 2002, dated 2007).

Read-outs that look alike come from different tables or passages of the source.

The test system of data set [1] is larvae of the mustard beetle (Phaedon cochleariae). The experiment in a line: Phaedon larvae test. The note with it: 168 h, 100 ppm active compound, cabbage leaves (Brassica oleracea) dipped, after 7 d, read-out: Kill rate in % after 7 d. It is filed as in vivo. The procedure: (§1) Phaedon Larvae Test • Solvent: 7 parts by weight of dimethylformamide • Emulsifier: 2 parts by weight of alkylaryl polyglycol ether To produce a suitable preparation of active compound, 1 part by weight of active compound is mixed with the stated amounts of solvent and emulsifier, and the concentrate is diluted with emulsifier-containing water to the desired concentration. Cabbage leaves (Brassica oleracea) are treated by being dipped into the preparation of active compound of the desired concentration and are populated with larvae of the mustard beetle (Phaedon cochleariae) while the leaves are still moist. After the desired period of time, the kill in % is determined. 100% means that all beetle larvae have been killed; 0% means that none of the beetle larvae have been killed. In this test, for example, the following compounds of the preparation examples show good activity: […]

In data set [2] the test system is caterpillars of the army worm (Spodoptera exigua). The data set is described as follows: Spodoptera exigua test. It is filed as in vivo. The note with it: 100 ppm active compound, cabbage leaves (Brassica oleracea) dipped. The protocol:
as §1, with “Spodoptera exigua” for “Phaedon Larvae”, “caterpillars” for “larvae”, “army worm (Spodoptera exigua)” for “mustard beetle (Phaedon cochleariae)”, “caterpillars” for “beetle larvae”

A short description of data set [3]: log P determination by HPLC on reversed-phase column (EEC Directive 79/831 Annex V.A8). It is filed as physicochemical. The protocol:
The log P values given in the preparation examples and tables above are determined in accordance with EEC Directive 79/831 Annex V.A8 by HPLC (High Performance Liquid Chromatography) on a reversed-phase column (C 18). Temperature: 43° C. In the acidic range, determination is carried out at pH 2.3 using the mobile phases 0.1% aqueous phosphoric acid and acetonitrile; linear gradient from 10% acetonitrile to 90% acetonitrile (in the tables marked with a)). In the neutral range, determination is carried out at pH 7.5 using the mobile phases 0.01 molar aqueous phosphate buffer solution and acetonitrile; linear gradient from 10% acetonitrile to 90% acetonitrile (in the tables marked with b)). Calibration is carried out using unbranched alkan-2-ones (of 3 to 16 carbon atoms) with known lopP values (determination of the log P values by the retention times using linear interpolation between two successive alkanones).

The test system of data set [4] is greenhouse red spider mite (Tetranychus urticae). The data set is described as follows: Tetranychus test (OP-resistant/dip treatment). It is filed as in vivo. The note with it: 168 h, 100 ppm active compound, infested bean plants (Phaseolus vulgaris) dipped, OP-resistant, after 7 d, read-out: Kill rate in % after 7 d. The procedure:
Tetranychus Test (OP-Resistant/Dip Treatment)
• Solvent: 7 parts by weight of dimethylformamide • Emulsifier: 2 parts by weight of alkylaryl polyglycol ether
To produce a suitable preparation of active compound, 1 part by weight of active compound is mixed with the stated amounts of solvent and emulsifier, and the concentrate is diluted with emulsifier-containing water to the desired concentration.
Bean plants (Phaseolus vulgaris) which are heavily infested by all stages of the greenhouse red spider mite (Tetranychus urticae) are treated by being dipped into a preparation of active compound of the desired concentration.
After the desired period of time, the activity in % is determined. 100% means that all spider mites have been killed; 0% means that none of the spider mites have been killed.
In this test, for example, the following compounds of the preparation examples show good efficacy: […]

Data set [5] deals with caterpillars of the army worm (Spodoptera frugiperda). The data set is described as follows: Spodoptera frugiperda test. It is filed as in vivo. The note with it: 168 h, 100 ppm active compound, cabbage leaves (Brassica oleracea) dipped, after 7 d, read-out: Kill rate in % after 7 d. The protocol:
as §1, with “Spodoptera frugiperda” for “Phaedon Larvae”, “caterpillars” for “larvae”, “army worm (Spodoptera frugiperda)” for “mustard beetle (Phaedon cochleariae)”, “caterpillars” for “beetle larvae”

For data set [6], the system named is caterpillars of the diamondback moth (Plutella xylostella). The experiment in a line: Plutella test. The note with it: 100 ppm active compound, cabbage leaves (Brassica oleracea) dipped. It is filed as in vivo. The protocol: as §1, with “Plutella” for “Phaedon Larvae”, “caterpillars” for “larvae”, “diamondback moth (Plutella xylostella)” for “mustard beetle (Phaedon cochleariae)”, “caterpillars” for “beetle larvae”

The subject of data set [7] is caterpillars of the cotton bollworm (Heliothis armigera). The experiment in a line: Heliothis armigera test. The note with it: Helicoverpa armigera, 168 h; 100 ppm active compound; soybean shoots (Glycine max) dipped; after 7 d; read-out: Kill rate in % after 7 d. It is filed as in vivo. The protocol:
as §1, with “Heliothis armigera” for “Phaedon Larvae”, “Soybean shoots (Glycine max)” for “Cabbage leaves (Brassica oleracea)”, “caterpillars” for “larvae”, “cotton bollworm (Heliothis armigera)” for “mustard beetle (Phaedon cochleariae)”, “caterpillars” for “beetle larvae”

[8] abbreviates: reversed-phase C18 HPLC column; acidic range, pH 2.3, 0.1% aqueous phosphoric acid/acetonitrile, 43° C.; marked a) in tables, read-out: log P (pH 2.3).
[9] abbreviates: reversed-phase C18 HPLC column; neutral range, pH 7.5, 0.01 molar aqueous phosphate buffer/acetonitrile, 43° C.; marked b) in tables, read-out: log P (pH 7.5).

With `CC(C)(C)c1noc(-c2ccc(-c3ccc(C4CCC(c5c(F)cccc5F)=N4)c(F)c3)cc2)n1` (stereo not drawn) [Example 5, 3-tert-butyl-5-{4′-[5-(2,6-difluorophenyl)-3,4-dihydro-2H-pyrrol-2-yl]-3′-fluoro-1,1′-biphenyl-4-yl}-1,2,4-oxadiazole], the pest or weed control at 100 ppm in data set [1] is 100%; in data set [4] it was 98%; in data set [5] it was 100%; in data set [7], 100%. For the same compound, the “Kill rate in after 7 d” value in data set [2] is given as 100%. The values for the chromatographic logP in data set [3] (setting [8]) and in data set [3] (setting [9]) were 5.79 and 6.06, respectively. In addition, the “Kill rate in % after 7 d” value in data set [6] came to 100%.

`CC(C)(C)c1nc(-c2ccc(-c3ccc(C4CCC(c5c(F)cccc5F)=N4)c(F)c3)cc2)no1` (stereo not drawn) [Example 6, 5-tert-butyl-3-{4′-[5-(2,6-difluorophenyl)-3,4-dihydro-2H-pyrrol-2-yl]-3′-fluoro-1,1′-biphenyl-4-yl}-1,2,4-oxadiazole]: the pest or weed control at 100 ppm is 100% in data set [1], 98% in data set [4], 100% in data set [5] and 100% in data set [7]. Further, the “Kill rate in after 7 d” value in data set [2] is 100%. In addition, the results for the chromatographic logP in data set [3] (setting [8]) and in data set [3] (setting [9]) were 5.65 and 5.97, respectively. Moreover, in data set [6], the “Kill rate in % after 7 d” value is 100%.

Regarding `Fc1cc(-c2ccc(-c3noc(C(F)(F)F)n3)cc2)ccc1C1CCC(c2c(F)cccc2F)=N1` (stereo not drawn) [Example 7], the pest or weed control at 100 ppm is 100% in data set [1], 98% in data set [4], 100% in data set [5] and 100% in data set [7]. Besides, the “Kill rate in after 7 d” value in data set [2] is on record as 100%. For the same compound, the chromatographic logP in data set [3] (setting [8]) turned out to be 5.43; in data set [3] (setting [9]), 5.72. The “Kill rate in % after 7 d” value in data set [6] was determined as 100%.
